Source: article doi:10.1101/2025.10.31.685773v1 (biorxiv, 2025)

Columns and labels:
[1] = biological target: T1, ADLP (Thermus thermophilus, UniProt Q72IQ0); experiment: isothermal titration calorimetry; type: binding
T1 sequence (Q72IQ0 1-345): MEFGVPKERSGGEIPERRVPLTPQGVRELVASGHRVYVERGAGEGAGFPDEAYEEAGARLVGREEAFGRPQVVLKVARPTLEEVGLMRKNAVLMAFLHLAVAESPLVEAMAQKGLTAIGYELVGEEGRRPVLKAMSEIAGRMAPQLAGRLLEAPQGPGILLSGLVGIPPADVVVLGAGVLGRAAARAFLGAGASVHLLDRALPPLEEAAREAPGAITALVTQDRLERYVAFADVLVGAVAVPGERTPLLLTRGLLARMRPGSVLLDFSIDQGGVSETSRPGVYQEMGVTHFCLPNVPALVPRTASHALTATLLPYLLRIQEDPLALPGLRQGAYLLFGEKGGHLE

[2] = biological target: TtCoAT·ADLP complex (NAD(H) site in ADLP) (Thermus thermophilus, UniProt Q72IQ0); experiment: isothermal titration calorimetry; type: binding
[3] = test system: CCCC(=O)SCCNC(=O)CCNC(=O)[C@H](O)C(C)(C)COP(=O)(O)OP(=O)(O)OC[C@H]1O[C@@H](n2cnc3c(N)ncnc32)[C@H](O)[C@@H]1OP(=O)(O)O; experiment: purified protein; conditions: 100 mM acetate as co-substrate, pH 7.5, no NAD+

Kd [1] [µM] | Kd [2] [nM] | Compound | Km [3] [µM]
0.22 | 340 ± 51 | NC(=O)C1=CN([C@@H]2O[C@H](COP(=O)(O)OP(=O)(O)OC[C@H]3O[C@@H](n4cnc5c(N)ncnc54)[C@H](O)[C@@H]3O)[C@@H](O)[C@H]2O)C=CC1 [NADH] | 
9.1 | 3100 ± 330 | NC(=O)c1ccc[n+]([C@@H]2O[C@H](COP(=O)(O)OP(=O)(O)OC[C@H]3O[C@@H](n4cnc5c(N)ncnc54)[C@H](O)[C@@H]3O)[C@@H](O)[C@H]2O)c1 [NAD^+] | 
 |  | TtCoAT·ADLP (CoA transferase site) (Thermus thermophilus HB27) | 33.1 ± 2.8
